Paper PMC9050848, “Carbamoyl-N-aryl-imine-urea: a new framework to obtain a putative leishmanicidal drug-candidate” (RSC Advances, 2020)

Assay: Plasma stability (UPLC-MS/MS recovery)
Type: in vitro ADME
Settings: 37 °C, rat plasma diluted 1:1 with PBS pH 7.4, read-out: Compound recovery after incubation with rat plasma
Description: To investigate the potential plasma instability of the carbamoyl-N-arylimine-urea subunit, designed as a new peptide mimetic framework, compound 10e (LASSBio-1736) was selected to investigate its plasma stability,[21,22] previously to the evaluation of its in vivo leishmanicidal effect. Quantitation of 10e (LASSBio-1736), benzocaine standard (positive control; it means a substrate drug for plasma hydrolysis) and ketoconazole (internal standard) was determined by UPLC-MS/MS, after incubation of the compounds at 0, 30, 60, 120 and 240 min with rat plasma, and measuring the peak areas in three different experiments.
For analysis of plasma stability, 5 μL (250 ng mL^−1) of a concentrated solution of 10e (LASSBio-1736) or the positive control benzocaine (stock concentration = 10 000 ng mL^−1 solubilized in DMSO) was added in 195 μL of rat plasma solution (1 : 1) diluted with PBS (pH 7.4). […] The supernatant (400 μL) were placed in 2 mL vials, and analyzed by UPLC-MS/MS. […]
Detection in single reaction monitoring (SRM) mode was used for determination of the LASSBio-1736 (10e) m/z 419.1 → 205.0, benzocaine m/z 166.1 → 137.9 and ketoconazole (IS) 532.1 → 490.3, with a tolerance of mass deviation of 6 ppm, operating in positive ionization mode. The data were acquired using TraceFinder 3.2. software (Thermo Fisher Scientific, Waltham, USA), and analyzed using GraphPad Prism 5 program.

recovery at 4 h, 250 ng/mL: 38%
SMILES: CCOC(=O)c1ccc(N)cc1 [benzocaine, reference compound]
